Earlier results on 7 compounds are cited in US7977452B2, “Janus dendrimers and dendrons” (Dendritic Nanotechnologies, Inc., priority 2005, dated 2011).

A value given as a limit tells only on which side of the number the result lay.

For series [1], the system named is Mouse.
For series [2], the system named is Mouse. This is another data set of the same source.
The conditions of series [3]: Gd-chelate PAMAM dendrimer contrast agent.
The conditions of series [4]: in vivo.

For the compound `CNC[C@H](O)[C@@H](O)[C@H](O)[C@H](O)CO.O=C([O-])CN1CCN(CC(=O)[O-])CCN(CC(=O)O)CCN(CC(=O)[O-])CC1.[Gd+3]` [NMG-Gd-DOTA], the “Effective dose (ED)” value in the series on Mouse [1] is 0.1 mmol·kg. Besides, the LD50 with Mouse [2] was 11.2 mmol·kg.
For `CNC(=O)CN(CCN(CCN(CC(=O)[O-])CC(=O)NC)CC(=O)[O-])CC(=O)[O-].[Gd+3]` [Gd-DTPA-BMA], in the series with Mouse [1], the “Effective dose (ED)” value is 0.1 mmol·kg. The LD50 in the series with Mouse [2] was 34.4 mmol·kg.
Consider `CNC[C@H](O)[C@@H](O)[C@H](O)[C@H](O)CO.CNC[C@H](O)[C@@H](O)[C@H](O)[C@H](O)CO.O=C([O-])CN(CCN(CC(=O)[O-])CC(=O)O)CCN(CC(=O)[O-])CC(=O)O.[Gd+3]` [(NMG)2-Gd-DTPA], for which the “Effective dose (ED)” value in the series on Mouse [1] was 0.1 mmol·kg. Further, in the series on Mouse [2], the LD50 was 8.2 mmol·kg.
Turning to `O=C(O)CN(CCN(CC(=O)O)CC(=O)O)CCN(CC(=O)O)CC(=O)O` (Gd complex, metal not drawn) [DTPA, diethylenetriaminepentaacetic acid], the Size in series [3] is listed as above 1 nm.
Turning to `CC(O)CN1CCN(CC(=O)[O-])CCN(CC(=O)[O-])CCN(CC(=O)[O-])CC1.[Gd+3]` (stereo not drawn) [Gd-HP-DO3A], the “Effective dose (ED)” value in the series on Mouse [1] was 0.1 mmol·kg. In the series with Mouse [2], the LD50 is 12.0 mmol·kg.
For the compound `O=C([O-])CN1CCNCCN(CC(=O)[O-])CCN(CC(=O)[O-])CC1.[Gd+3]` [Gd(III)-DO3A], in the series on Mouse [1], the “Effective dose (ED)” value is 0.1 mmol·kg. In the series with Mouse [2], the LD50 is 7 mmol·kg.
On to `O=C(O)CN(CCN(CC(=O)O)CC(=O)O)CCN(CC(=O)O)CC(=O)O` [DTPA, diethylenetriaminepentaacetic acid], for which the Excretion entry in series [4] is given as “Kidney”.
